The subject of one data set is PKC. Briefly: PKC activity assay (ELISA kit) in cytosol of PMA stimulated neutrophils. Type of data set: cell-based, human. The settings on record: for PKC activity (percentage of stimulated PMA control): 30 min incubation, PMA 0.15 μmol/L 3 min, mean ± SEM, n = 8. The protocol:
PKC activity in the cytosol was detected by the modified method of Varga et al.. Isolated human neutrophils (5 × 10^5/mL) were incubated 30 min with HHC (1, 10, and 100 μmol/L) or HHDC (1, 10, and 100 μmol/L) at 37°C. Neutrophils were then stimulated with PMA (0.15 μmol/L, final concentration) at 37°C for 3 min. The reaction was stopped by addition of 10 vol of ice-cold PBS. After centrifugation (500 ×g, 4°C, 10 min) the cells were resuspended in sample buffer (20 mmol/L TRIS-HCl, 5 mmol/L EDTA, 1% Triton, 10% glycerol, and protease inhibitor cocktail), sonicated on ice, and centrifuged (14 000 ×g, 5 min, 4°C). The cytosolic fractions were transferred to a prechilled 1.5 mL microcentrifuge tube and stored at –70°C. Protein content of cytosol fraction was measured using Bradford Dye Reagent Detection Kit (Bio-Rad, USA). PKC activity was measured with a Nonradioactive Protein Kinase Assay kit (Assay Designs, Ann Arbor, MI, USA), which is based on a solid-phase enzyme-linked immunoabsorbent assay (ELISA), utilising a specific synthetic peptide as substrate for PKC and a polyclonal antibody recognizing the phosphorylated form of the substrate. The assay is developed with tetramethylbenzidine substrate and a colour develops in proportion to PKC phosphotransferase activity. The colour development was stopped with acid stop solution and the intensity of the colour was measured in a microplate reader at 450 nm. The data were expressed as relative kinase activity per 1 mg of protein.

Another data set deals with T1, PKCδ (Homo sapiens, UniProt Q05655).
T1 construct: endogenous in cells; host or cells: isolated human neutrophils
T1 sequence (Q05655 whole entry): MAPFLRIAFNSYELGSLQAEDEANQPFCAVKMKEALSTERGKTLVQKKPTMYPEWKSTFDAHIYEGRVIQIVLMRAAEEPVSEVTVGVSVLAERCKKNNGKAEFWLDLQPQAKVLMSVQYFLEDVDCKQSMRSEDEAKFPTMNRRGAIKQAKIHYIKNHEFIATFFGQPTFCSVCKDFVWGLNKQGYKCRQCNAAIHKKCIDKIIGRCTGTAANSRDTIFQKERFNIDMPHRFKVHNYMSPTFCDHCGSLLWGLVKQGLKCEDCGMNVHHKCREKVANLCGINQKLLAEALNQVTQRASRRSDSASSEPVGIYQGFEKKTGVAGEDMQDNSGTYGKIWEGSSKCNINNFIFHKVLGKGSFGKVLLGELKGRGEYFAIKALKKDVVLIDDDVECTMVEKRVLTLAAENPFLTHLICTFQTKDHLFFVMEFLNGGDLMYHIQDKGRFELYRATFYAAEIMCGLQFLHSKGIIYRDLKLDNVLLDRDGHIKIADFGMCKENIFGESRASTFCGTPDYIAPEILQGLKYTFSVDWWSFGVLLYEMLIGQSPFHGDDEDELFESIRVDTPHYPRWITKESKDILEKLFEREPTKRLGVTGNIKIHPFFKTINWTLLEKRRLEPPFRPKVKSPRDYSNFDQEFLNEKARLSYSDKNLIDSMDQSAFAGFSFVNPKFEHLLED
Briefly: Western blot, phosphorylation of PKCδ (Thr505) in PMA stimulated neutrophils. Type of data set: cell-based. The settings on record: 10 and 100 μmol/L, PMA 0.15 μmol/L. The procedure: (§1) Phosphorylation of PKC isoenzymes α, βII, and δ, as well as NADPH oxidase subunit p40^phox, was detected using the method described by Jančinová et al..
(§2) The suspension of isolated neutrophils (100 μL) containing 5 × 10^6 cells was preincubated at 37°C for 60 seconds with different concentrations of HHC or HHDC (10, 100 μmol/L) prior to addition of PMA (0.15 μmol/L). Incubation with PMA (5 min) was stopped by using a solubilisation buffer (20 mmol/L Tris-HCl, 5 mmol/L EDTA, 1% Triton, 10% glycerol, 10 mmol/L NaF, 1 mmol/L sodium orthovanadate, 208 μmol/L AEBF, 0.17 μmol/L aprotinin, 8 μmol/L bestatin, 2.8 μmol/L E-64, 4 μmol/L leupeptin, and pH 7.4). The suspension was sonicated at 4°C for […] and centrifuged at 14 000 ×g at 4°C for 5 min to remove unbroken cells. […] From the two strips taken, one was detected for PKCα, βII (area between 60 and 100 kD) and the second for detection of β-actin (30–60 kD), which represented the internal control. […]
(§3) NADPH oxidase subunit p40^phox and PKC isoenzyme δ were detected in the same blots after their washing and incubation with 10x diluted stripping buffer (Reblot Plus Mild Solution, Millipore, Temecula, CA, USA) for 15 min and washed overnight in diluent buffer (1% bovine serum albumin in Tris buffered saline). […] Autoradiogram bands were quantified using the Image J programme. […]

Data set [1] has as its system extracellular ROS production in PMA stimulated human neutrophils. Briefly: Extracellular chemiluminescence (isoluminol/HRP) of PMA stimulated neutrophils. Type of data set: cell-based. The settings on record: for Effect on extracellular ROS production: 0.01–100 μmol/L, PMA stimulated; for EC50: Homo sapiens, PMA 0.05 μmol/L, 37°C, isoluminol-enhanced CL integrated over 1800 s, mean ± SEM, read-out: EC50, extracellular chemiluminescence (50% inhibition of control CL); for EC50 / IC50: Neutrophil; for IC50: PMA stimulated human neutrophils, read-out: IC50 of control extracellular chemiluminescence. The procedure:
(§4) The effect of HHC or HHDC (0.01, 0.1, 1, 10, and 100 μmol/L) on extra- and intracellular ROS production was measured in unstimulated and PMA (0.05 μmol/L) stimulated neutrophils (5 × 10^5/sample) by isoluminol-/luminol-enhanced chemiluminescence (CL). Extracellular CL was determined in the system containing isoluminol (5 μmol/L) and HRP (8 U/mL). Intracellular CL was measured with luminol (5 μmol/L) in the presence of the extracellular scavengers superoxide dismutase (100 U/mL) and catalase (2 000 U/mL). […] Data were based on integral values of CL over 1800 s, (RLU × s; RLU: relative light units).

The nature of data set [2]: Chemiluminescence assay in cell-free system. It counts as biochemical. The settings on record: luminol, hydrogen peroxide; for EC50: HRP, 37°C, CL over 10 minutes, mean ± SEM, read-out: EC50, cell free chemiluminescence (50% inhibition of control CL). The procedure:
In the cell-free system, luminol, horseradish peroxidase, and hydrogen peroxide were used for chemiluminescence generation. The 200 μL samples consisted of 50 μL aliquots: HRP (2 U/mL), luminol (10 μmol/L), HHC, or HHDC solutions in the concentrations of 1, 10, or 100 μmnol/L. The reaction was initiated by adding hydrogen peroxide at the final concentration of 100 μmol/L. The chemiluminescence responses were measured for 10 minutes at 37°C in a microplate luminometer Immunotech LM-01T (Czech Republic).

The test system of data set [3] is NADPH oxidase subunit p40^phox. The data set is described as follows: Western blot, phosphorylation of NADPH oxidase subunit p40phox (T154) in PMA stimulated neutrophils. Type of data set: cell-based, human. The settings on record: 10 and 100 μmol/L, PMA 0.15 μmol/L. The procedure: as §1, §2, §3
The test system of another data set is human neutrophils. Briefly: Cytotoxicity by ATP liberation (luciferin-luciferase chemiluminescence). It counts as cell-based. The note with it: 1, 10, and 100 μmol/L. The procedure:
The cytotoxic effect of HHC and HHDC was evaluated by means of ATP liberation by the luciferin-luciferase chemiluminescence. The neutrophil suspension (30 μL; 30 000 cells/sample) and 20 μL of Tyrode's solution were incubated with 50 μL of HHC or HHDC (1–100 μmol/L) for 15 min at 37°C. Ten microliters of a mixture of luciferin (1.6 μg/sample) and luciferase (45 000 U/sample) was added, and the chemiluminescence was recorded for 60 s. In each experiment, the chemiluminescence of ATP standards (1–500 nmol/L) was measured and the concentrations of ATP in samples were calculated from the calibration curve. The total ATP content was assessed immediately after sonication of neutrophils for 10 s.

The subject of data set [4] is intracellular ROS production in PMA stimulated human neutrophils. The data set is described as follows: Intracellular chemiluminescence (luminol with superoxide dismutase and catalase) of PMA stimulated neutrophils. It counts as cell-based. The note with it: for Effect on intracellular ROS production: 0.01–100 μmol/L, PMA stimulated; for EC50: Homo sapiens, PMA 0.05 μmol/L, 37°C, luminol-enhanced CL integrated over 1800 s, mean ± SEM, read-out: EC50, intracellular chemiluminescence (50% inhibition of control CL). The procedure: as §4

Details of data set [5]: method as in PMID 21187835. The settings on record: cited from earlier work.

The structures appear in SMILES notation.

Take `O=c1oc2cc(O)ccc2cc1-c1ccc(O)cc1` [HHC, 7-Hydroxy-3-(4′-hydroxyphenyl) coumarin]: the “PKC activity (percentage of stimulated PMA control)” value stood at 87.7 ± 4.2% with PKC (1 μmol/L), 74.8 ± 6.3% in the data set with PKC (10 μmol/L) and 46.3 ± 1.8% in the data set with PKC (100 μmol/L). In addition, the “Effect on phosphorylation of PKCδ” value at PKCδ is recorded as “did not affect phosphorylation of PKCδ”. For the same molecule, the “Effect on extracellular ROS production” value in data set [1] is reported as “decreased significantly extracellular ROS production”. In addition, the values for the EC50 in data set [1], in data set [2] and in data set [4] (Neutrophil) were 1040 ± 200 nM, 590 ± 10 nM and 5240 ± 570 nM, respectively. In addition, the IC50 in data set [1] was 1040 ± 200 nM; in data set [4] (Neutrophil, PMA stimulated human neutrophils), 5240 ± 570 nM. Besides, in data set [3], the “Effect on phosphorylation of p40phox subunit” value is given as “failed to influence it”. In the data set with human neutrophils, the “Effect on spontaneous ATP liberation (cytotoxicity)” value is “did not increase spontaneous ATP liberation”. For the same molecule, in data set [4], the “Effect on intracellular ROS production” value is on record as “decreased significantly intracellular ROS production”.

For the molecule `O=C1Oc2cc(O)ccc2CC1c1ccc(O)cc1` (stereo not shown) [HHDC, 7-Hydroxy-3-(4′-hydroxyphenyl)-3,4-dihydrocoumarin], in the data set with PKC (1, 10, and 100 μmol/L, PMA stimulated), the “Effect on PKC activity” value is reported as “did not significantly influence PKC activity”. For the same molecule, in data set [5], the “Partition coefficient, compared to that of HHC” value is “lower values of the partition coefficient”. The “Effect on phosphorylation of PKCδ” value at PKCδ is recorded as “did not affect phosphorylation of PKCδ”. Besides, the “Effect on extracellular ROS production” value in data set [1] is reported as “decreased significantly extracellular ROS production”. In addition, the EC50 in data set [1] was 1010 ± 130 nM; in data set [2], 2470 ± 40 nM; in data set [4] (Neutrophil), > 100000 nM. The concentration for half-maximal inhibition (IC50) in data set [1] came to 1010 ± 130 nM; in data set [2] (horseradish peroxidase, unit inferred, read-out: IC50, chemiluminescence generated by cell-free system) it was 2470 ± 40 nM. The “Effect on phosphorylation of p40phox subunit” value in data set [3] is “failed to influence it”. The “Effect on spontaneous ATP liberation (cytotoxicity)” value in the data set with human neutrophils is listed as “did not increase spontaneous ATP liberation”. In data set [4], the “Effect on intracellular ROS production” value was “slightly effective only in the highest concentration tested”.
